Experimental data as given in ChEMBL document CHEMBL6109088 (J Med Chem, 2025).

Legend:
in vivo [1] = conditions: male, Wistar Hannover, rat, iv, 1 mg/kg
in vivo [2] = conditions: male, cynomolgus monkey, po, 100 mg/kg
in vivo [3] = conditions: male, cynomolgus monkey, po, 100 mg/kg; remark: listed apart in the source
in vivo [4] = conditions: male, cynomolgus monkey, po, 100 mg/kg; remark: listed apart in the source
in vivo [5] = conditions: male, cynomolgus monkey, po, 10 mg/kg
in vivo [6] = conditions: male, Wistar Hannover, rat, po, 10 mg/kg
in vivo [7] = conditions: male, Wistar Hannover, rat, po, 100 mg/kg
in vivo [8] = conditions: male, Wistar Hannover, rat, po, 10 mg/kg; remark: listed apart in the source
in vivo [9] = conditions: male, cynomolgus monkey, po, 100 mg/kg; remark: listed apart in the source
in vivo [10] = conditions: male, Wistar Hannover, rat, po, 100 mg/kg; remark: listed apart in the source
in vitro [11] = conditions: human, liver microsomes
in vivo [12] = conditions: male, Wistar Hannover, rat, po, 10 mg/kg; remark: listed apart in the source
in vivo [13] = conditions: male, cynomolgus monkey, iv, 1 mg/kg
in vivo [14] = conditions: male, Wistar Hannover, rat, po, 10 mg/kg; remark: listed apart in the source
in vivo [15] = conditions: male, cynomolgus monkey, iv, 1 mg/kg; remark: listed apart in the source
in vivo [16] = conditions: male, Wistar Hannover, rat, iv, 1 mg/kg; remark: listed apart in the source
in vivo [17] = conditions: male, Wistar Hannover, rat, po, 10 mg/kg; remark: listed apart in the source
in vivo [18] = conditions: male, cynomolgus monkey, po, 10 mg/kg; remark: listed apart in the source
in vivo [19] = conditions: male, Wistar Hannover, rat, po, 100 mg/kg; remark: listed apart in the source
in vivo [20] = conditions: male, Wistar Hannover, rat, po, 100 mg/kg; remark: listed apart in the source
in vivo [21] = conditions: male, Wistar Hannover, rat, po, 100 mg/kg; remark: listed apart in the source
in vitro [22] = conditions: dog, MDCK
in vivo [23] = conditions: male, Wistar Hannover, rat, plasma, iv, 1 mg/kg
in vivo [24] = conditions: male, cynomolgus monkey, plasma, iv, 1 mg/kg
in vivo [25] = conditions: male, cynomolgus monkey, po, 100 mg/kg; remark: listed apart in the source
in vivo [26] = conditions: male, cynomolgus monkey, iv, 1 mg/kg; remark: listed apart in the source
in vivo [27] = conditions: male, Wistar Hannover, rat, po, 100 mg/kg; remark: listed apart in the source
in vivo [28] = conditions: male, Wistar Hannover, rat, po, 10 mg/kg; remark: listed apart in the source
in vivo [29] = conditions: male, Wistar Hannover, rat, po, 10 mg/kg; remark: listed apart in the source
in vivo [30] = conditions: male, cynomolgus monkey, po, 10 mg/kg; remark: listed apart in the source
in vivo [31] = conditions: male, cynomolgus monkey, po, 100 mg/kg; remark: listed apart in the source
in vivo [32] = conditions: male, Wistar Hannover, rat, po, 10 mg/kg; remark: listed apart in the source
SARS-CoV-2 = test: microbe, parasite or virus in culture; conditions: Severe acute respiratory syndrome coronavirus 2, USA-WA1/2020, Vero C1008
in vivo [33] = conditions: rat, po
physchem = conditions: octanol/water

Compound: CC(C)(C)[C@H](NC(=O)C(F)(F)F)C(=O)N1C[C@H]2[C@@H]([C@H]1C(=O)N[C@H](C#N)C[C@@H]1CCNC1=O)C2(C)C
- Vd at 4 h (in vivo [1]): 1.8 L/kg
- AUC(0-inf) (in vivo [2]): 37.2 µg·h/mL
- AUC(0-inf) (in vivo [3]): 4.4 µg·h/mL
- Cmax (in vivo [4]): 1.56 µg/mL
- AUC(0-t) (in vivo [5]): 0.831 µg·h/mL
- bioavailability at 4 h (in vivo [6]): 50%
- AUC(0-inf) at 4 h (in vivo [7]): 68.3 µg·h/mL
- Tmax at 4 h (in vivo [8]): 1.5 h
- Cmax (in vivo [9]): 16.3 µg/mL
- AUC(0-inf) at 4 h (in vivo [10]): 18 µg·h/mL
- microsomal CLint (in vitro [11]): 24.5 µL/min/mg
- AUC(0-inf) at 4 h (in vivo [12]): 3.19 µg·h/mL
- AUC(0-inf) (in vivo [13]): 0.977 µg·h/mL
- AUC(0-inf) at 4 h (in vivo [14]): 2.17 µg·h/mL
- Vd (in vivo [15]): 0.33 L/kg
- half-life at 4 h (in vivo [16]): 5.1 h
- Cmax at 4 h (in vivo [17]): 1.29 µg/mL
- Cmax (in vivo [18]): 1.45 µg/mL
- Tmax at 4 h (in vivo [19]): 1.4 h
- bioavailability at 4 h (in vivo [20]): 108%
- bioavailability at 4 h (in vivo [21]): 29%
- Papp A→B (in vitro [22]): 17.1 nm/s
- clearance at 4 h (in vivo [23]): 1.63 L/h/kg
- clearance (in vivo [24]): 1.03 L/h/kg
- Tmax (in vivo [25]): 1 h
- half-life (in vivo [26]): 0.79 h
- Tmax at 4 h (in vivo [27]): 0.75 h
- half-life at 4 h (in vivo [28]): 2.8 h
- Cmax at 4 h (in vivo [29]): 1.45 µg/mL
- bioavailability (in vivo [30]): 8.5%
- Tmax (in vivo [31]): 0.5 h
- half-life at 4 h (in vivo [32]): 4 h

Compound: CNC(=O)N[C@H](C(=O)N1C[C@H]2[C@@H]([C@H]1C(=O)N[C@H](C#N)C[C@@H]1CCNC1=O)C2(C)C)C(C)(C)C
- microsomal CLint (in vitro [11]): < 7.12 µL/min/mg
- Papp A→B (in vitro [22]): 6.2 nm/s

Compound: CC(C)[C@H](NC(=O)C(F)(F)F)C(=O)N1C[C@H]2[C@@H]([C@H]1C(=O)N[C@H](C#N)C[C@@H]1CCNC1=O)C2(C)C
- microsomal CLint (in vitro [11]): 7.9 µL/min/mg
- EC50 (SARS-CoV-2): 0.229 µM
- bioavailability (in vivo [33]): 20%
- Papp A→B (in vitro [22]): 7.21 nm/s

Compound: COC(=O)N[C@H](C(=O)N1C[C@H]2[C@@H]([C@H]1C(=O)N[C@H](C#N)C[C@@H]1CCNC1=O)C2(C)C)C(C)(C)C
- microsomal CLint (in vitro [11]): 8.1 µL/min/mg
- bioavailability (in vivo [33]): 21%
- Papp A→B (in vitro [22]): 6.1 nm/s

Compound: CC(=O)N[C@H](C(=O)N1C[C@H]2[C@@H]([C@H]1C(=O)N[C@H](C#N)C[C@@H]1CCNC1=O)C2(C)C)C(C)(C)C
- microsomal CLint (in vitro [11]): < 7 µL/min/mg
- EC50 (SARS-CoV-2): 5.31 µM
- bioavailability (in vivo [33]): 2.8%
- Papp A→B (in vitro [22]): < 3.02 nm/s

Compound: COc1cccc2[nH]c(C(=O)N[C@@H](CC(C)C)C(=O)N[C@H](C#N)C[C@@H]3CCNC3=O)cc12
- bioavailability (in vivo [33]): 7%
- Papp A→B (in vitro [22]): 9.45 nm/s

Compound: CC(C)(C)[C@H](NC(=O)C(F)(F)F)C(=O)N1C[C@H]2[C@@H]([C@H]1C(=O)N[C@@H](C[C@@H]1CCNC1=O)C(=O)CO)C2(C)C
- microsomal CLint (in vitro [11]): < 7 µL/min/mg
- EC50 (SARS-CoV-2): < 0.331 µM
- Papp A→B (in vitro [22]): < 4.81 nm/s

Compound: CC(C)(C)[C@H](NS(=O)(=O)C(F)(F)F)C(=O)N1C[C@H]2[C@@H]([C@H]1C(=O)N[C@H](C#N)C[C@@H]1CCNC1=O)C2(C)C
- microsomal CLint (in vitro [11]): < 7.47 µL/min/mg
- EC50 (SARS-CoV-2): 0.179 µM
- Papp A→B (in vitro [22]): 7 nm/s

Compound: COc1cccc2[nH]c(C(=O)N3C[C@H]4[C@@H]([C@H]3C(=O)N[C@@H](C[C@@H]3CCNC3=O)C(=O)c3nc5ccccc5s3)C4(C)C)cc12
- microsomal CLint (in vitro [11]): 337 µL/min/mg
- EC50 (SARS-CoV-2): 5.59 µM
- logD (physchem): 4.2
- Papp A→B (in vitro [22]): 73 nm/s

Compound: CC(=O)N[C@H](C(=O)N1C[C@H]2[C@@H]([C@H]1C(=O)N[C@@H](C[C@@H]1CCNC1=O)C(=O)c1nc3ccccc3s1)C2(C)C)C(C)(C)C
- microsomal CLint (in vitro [11]): 27 µL/min/mg
- EC50 (SARS-CoV-2): 0.702 µM
- logD (physchem): 2.4
- Papp A→B (in vitro [22]): 7 nm/s

Compound: COCC(=O)[C@H](C[C@@H]1CCNC1=O)NC(=O)[C@@H]1[C@@H]2[C@H](CN1C(=O)[C@@H](NC(=O)C(F)(F)F)C(C)(C)C)C2(C)C
- microsomal CLint (in vitro [11]): 11.8 µL/min/mg
- EC50 (SARS-CoV-2): 0.134 µM
- Papp A→B (in vitro [22]): 4.99 nm/s
